Data: patent publication US9688695B2, “Imidazothiadiazole and imidazopyrazine derivatives as protease activated receptor 4 (PAR4) inhibitors for treating platelet aggregation” (BRISTOL-MYERS SQUIBB COMPANY, priority 2012, dated 2017)
pEC50: −log10 of the molar value.

Molecular target: PAR4 (Homo sapiens (Human), UniProt Q96RI0)
Assay: FLIPR assay in PAR4-expressing HEK293 cells (PAR4 antagonist activity, calcium mobilization)
Format: cell-based
Conditions: H-Ala-Phe(4-F)-Pro-Gly-Trp-Leu-Val-Lys-Asn-Gly-NH2-induced calcium mobilization
How it was run: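 HEK293 EBNA cells stably expressing human PAR4 (also endogenous PAR1) preincubated 30 min at room temperature with compound in HBSS/10 mM HEPES, 0.67% DMSO final. PAR4 agonist peptide then added and intracellular calcium mobilization monitored by fluorescence.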

PAR4, sequence (Q96RI0 18-385): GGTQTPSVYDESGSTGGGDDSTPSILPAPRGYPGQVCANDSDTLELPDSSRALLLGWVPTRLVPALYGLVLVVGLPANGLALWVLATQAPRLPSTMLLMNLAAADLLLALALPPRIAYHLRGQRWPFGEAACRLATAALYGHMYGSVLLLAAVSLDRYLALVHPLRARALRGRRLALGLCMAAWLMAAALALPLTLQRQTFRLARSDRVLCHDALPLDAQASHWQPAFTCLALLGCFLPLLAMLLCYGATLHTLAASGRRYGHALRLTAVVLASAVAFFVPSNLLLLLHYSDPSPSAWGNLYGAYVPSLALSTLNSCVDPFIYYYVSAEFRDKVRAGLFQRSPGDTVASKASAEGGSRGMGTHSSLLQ

SMILES | pEC50
COc1cc(OCc2csc(N(C)CCC#N)n2)c2cc(-c3cn4nc(OC)sc4n3)oc2c1 [Example 106, 3-((4-(((6-Methoxy-2-(2-methoxyimidazo[2,1-b][1,3,4]thiadiazol-6-yl)benzofuran-4-yl)oxy)methyl)thiazol-2-yl)(methyl)amino)propanenitrile] | 9.01
COc1cc(OCc2csc(-c3ccc(F)nc3)n2)c2cc(-c3cn4nc(C)ccc4n3)oc2c1 [Example 228] | 9.74
COc1cc(OCc2csc(C3(NC(=O)CNC(=O)OC(C)(C)C)CCOCC3)n2)c2cc(-c3cn4nc(OC)sc4n3)oc2c1 [Example 173, tert-Butyl (2-((4-(4-(((6-methoxy-2-(2-methoxyimidazo-[2,1-b][1,3,4]thiadiazol-6-yl)benzofuran-4-yl)oxy)methyl)-thiazol-2-yl)tetrahydro-2H-pyran-4-yl)amino)-2-oxoethyl)carbamate] | 9.17
CCNC(=O)c1ccc(-c2nc(COc3cc(OC)cc4oc(-c5cn6nc(OC)sc6n5)cc34)cs2)cc1 [Example 306] | 8.92
COc1cc(OCc2csc(C(C)(C)c3ccccc3)n2)c2cc(-c3cn4nc(OC)sc4n3)oc2c1 [Example 175, 2-Methoxy-6-(6-methoxy-4-((2-(2-phenylpropan-2-yl)thiazol-4-yl)methoxy)benzofuran-2-yl)imidazo[2,1-b][1,3,4]thiadiazole] | 8.85
C=C(c1cncnc1)c1nc(COc2cc(OC)cc3oc(-c4cn5nc(OC)sc5n4)cc23)cs1 [Example 178, 2-Methoxy-6-(6-methoxy-4-((2-(1-(pyrimidin-5-yl)vinyl)thiazol-4-yl)methoxy)benzofuran-2-yl)imidazo[2,1-b][1,3,4]thiadiazole] | 9.06
COc1cc(OCc2csc(-c3ccc(C(=O)N4CCC4)cc3)n2)c2cc(-c3cn4nc(OC)sc4n3)oc2c1 [Example 289] | 8.92
COc1cc(OCc2csc(-c3ccccc3)n2)c2cc(-c3cn4nc(C)ccc4n3)oc2c1 [Example 203, 4-(((6-Methoxy-2-(6-methylimidazo[1,2-b]pyridazin-2-yl)benzofuran-4-yl)oxy)methyl)-2-phenylthiazole] | 9.12
COc1cc(OCc2csc(N3CCC(F)(F)CC3)n2)c2cc(-c3cn4nc(C)ccc4n3)oc2c1 [Example 235] | 9.36
COc1nn2cc(-c3cc4c(OCc5csc(-c6ccc(C(=O)N(C)CC#N)cc6)n5)cc(F)cc4o3)nc2s1 [Example 184, N-(Cyanomethyl)-4-(4-(((6-fluoro-2-(2-methoxyimidazo[2,1-b][1,3,4]thiadiazol-6-yl)benzofuran-4-yl)oxy)methyl)thiazol-2-yl)-N-methylbenzamide] | 9.42
COc1cc(OCc2csc(-c3cccc(C)c3)n2)c2cc(-c3cn4nc(OC)sc4n3)oc2c1 [Example 12] | 8.89
COc1cc(OCc2csc(-c3cccc(F)c3)n2)c2cc(-c3cn4nc(OC)sc4n3)oc2c1 [Example 25] | 9.26
COc1cc(OCc2csc(-c3ccc(C(=O)N(C)CCO)cc3)n2)c2cc(-c3cn4nc(OC)sc4n3)oc2c1 [Example 300] | 9.38
COc1cc(OCc2csc(C3(O)CCC(C(=O)OC(C)(C)C)CC3)n2)c2cc(-c3cn4nc(OC)sc4n3)oc2c1 (stereo not shown) [Example 149, tert-Butyl 4-hydroxy-4-(4-(((6-methoxy-2-(2-methoxyimidazo[2,1-b][1,3,4]thiadiazol-6-yl)benzofuran-4-yl)oxy)methyl)thiazol-2-yl)cyclohexanecarboxylate] | 8.39
COc1cc(OCc2csc(C3(c4ccc(C)cc4)CCOCC3)n2)c2cc(-c3cn4nc(OC)sc4n3)oc2c1 [Example 157, 2-Methoxy-6-(6-methoxy-4-((2-(4-(p-tolyl)tetrahydro-2H-pyran-4-yl)thiazol-4-yl)methoxy)benzofuran-2-yl)imidazo[2,1-b][1,3,4]thiadiazole] | 8.44
COc1cc(OCc2nc(N3CCOCC3)sc2C=O)c2cc(-c3cn4nc(OC)sc4n3)oc2c1 [Example 88, 4-(((6-Methoxy-2-(2-methoxyimidazo[2,1-b][1,3,4]thiadiazol-6-yl)benzofuran-4-yl)oxy)methyl)-2-morpholinothiazole-5-carbaldehyde] | 8.54
COc1nn2cc(-c3cc4c(OCc5csc(-c6ccc(C(=O)N(C)C(C)(C)C)cc6)n5)cc(F)cc4o3)nc2s1 [Example 182, N-(tert-Butyl)-4-(4-(((6-fluoro-2-(2-methoxyimidazo[2,1-b][1,3,4]thiadiazol-6-yl)benzofuran-4-yl)oxy)methyl)thiazol-2-yl)-N-methylbenzamide] | 9.52

SMILES | pEC50
CCC1CCN(c2nc(COc3cc(OC)cc4oc(-c5cn6nc(C)ccc6n5)cc34)cs2)CC1 [Example 271] | 8.89
COCc1sc(N2CCOCC2)nc1COc1cc(OC)cc2oc(-c3cn4nc(OC)sc4n3)cc12 [Example 90, 4-(4-(((6-Methoxy-2-(2-methoxyimidazo[2,1-b][1,3,4]thiadiazol-6-yl)benzofuran-4-yl)oxy)methyl)-5-(methoxymethyl)thiazol-2-yl)morpholine] | 9.48
COc1cc(OCc2csc(-c3cccc(O)c3)n2)c2cc(-c3cn4nc(OC)sc4n3)oc2c1 [Example 63] | 9.20
COc1cc(OCc2csc(N3C[C@@H](C)O[C@@H](C)C3)n2)c2cc(-c3cn4nc(OC)sc4n3)oc2c1 [Example 51] | 9.59
COc1cc(OCc2csc(-c3ccc(C(=O)N(C)C(C)(C)C)cc3)n2)c2cc(-c3cn4nc(OC)sc4n3)oc2c1 [Example 297] | 9.28
COc1cc(OCc2csc(C3(O)CC(C)OC(C)C3)n2)c2cc(-c3cn4nc([C@H](C)F)sc4n3)oc2c1 (stereo partly drawn) [Example 198, 4-(4-(((2-(2-((S)-1-Fluoroethyl)imidazo[2,1-b][1,3,4]thiadiazol-6-yl)-6-methoxybenzofuran-4-yl)oxy)methyl)thiazol-2-yl)-2,6-dimethyltetrahydro-2H-pyran-4-ol] | 9.38
COc1cc(OCc2csc(C3=CCC(C(=O)OC(C)(C)C)CC3)n2)c2cc(-c3cn4nc(OC)sc4n3)oc2c1 (stereo not shown) [Example 148, tert-Butyl 4-(4-(((6-methoxy-2-(2-methoxyimidazo[2,1-b][1,3,4]thiadiazol-6-yl)benzofuran-4-yl)oxy)methyl)thiazol-2-yl)cyclohex-3-enecarboxylate] | 9.43
COc1cc(OCc2nc(-c3ccccc3)sc2Cl)c2cc(-c3cn4nc(OC)sc4n3)oc2c1 [Example 85, 6-(4-((5-Chloro-2-phenylthiazol-4-yl)methoxy)-6-methoxybenzofuran-2-yl)-2-methoxyimidazo[2,1-b][1,3,4]thiadiazole] | 8.96
COc1cc(OCc2csc(-c3ccc(CO)cc3)n2)c2cc(-c3cn4nc(OC)sc4n3)oc2c1 [Example 69] | 9.64
COc1cc(OCc2csc(C3CCN(C(=O)OC(C)(C)C)CC3)n2)c2cc(-c3cn4nc(OC)sc4n3)oc2c1 [Example 109, tert-Butyl 4-(4-(((6-methoxy-2-(2-methoxyimidazo[2,1-b][1,3,4]thiadiazol-6-yl)benzofuran-4-yl)oxy)methyl)thiazol-2-yl)piperidine-1-carboxylate] | 9.16
COc1cc(OCc2csc(C3CCSCC3)n2)c2cc(-c3cn4nc(C)ccc4n3)oc2c1 [Example 204, 4-(((6-Methoxy-2-(6-methylimidazo[1,2-b]pyridazin-2-yl)benzofuran-4-yl)oxy)methyl)-2-(tetrahydro-2H-thiopyran-4-yl)thiazole] | 9.14
CCC(O)(CC)c1nc(COc2cc(OC)cc3oc(-c4cn5nc(OC)sc5n4)cc23)cs1 [Example 140] | 9.17
COc1cc(OCc2csc(C3(C)CCOCC3)n2)c2cc(-c3cn4nc(OC)sc4n3)oc2c1 [Example 167, 2-Methoxy-6-(6-methoxy-4-((2-(4-methyltetrahydro-2H-pyran-4-yl)thiazol-4-yl)methoxy)benzofuran-2-yl)imidazo[2,1-b][1,3,4]thiadiazole] | 9.59
COc1cc(OCc2csc(N3CCN(S(=O)(=O)c4ccc(C#N)cc4)CC3)n2)c2cc(-c3cn4nc(OC)sc4n3)oc2c1 [Example 101, 4-((4-(4-(((6-Methoxy-2-(2-methoxyimidazo[2,1-b][1,3,4]thiadiazol-6-yl)benzofuran-4-yl)oxy)methyl)thiazol-2-yl)piperazin-1-yl)sulfonyl)benzonitrile] | 9.44
COc1cc(OCc2csc(C3(c4cccnc4)CCC3)n2)c2cc(-c3cn4nc(OC)sc4n3)oc2c1 [Example 177, 2-Methoxy-6-(6-methoxy-4-((2-(1-(pyridin-3-yl)cyclobutyl)thiazol-4-yl)methoxy)benzofuran-2-yl)imidazo[2,1-b][1,3,4]thiadiazole] | 9.21
COc1cc(OCc2nc(-c3ccc(C(=O)OC(C)(C)C)cc3)sc2C)c2cc(-c3cn4nc(OC)sc4n3)oc2c1 [Example 45, tert-Butyl 4-(4-(((6-methoxy-2-(2-methoxyimidazo[2,1-b][1,3,4]thiadiazol-6-yl)benzofuran-4-yl)oxy)methyl)-5-methylthiazol-2-yl)benzoate] | 8.89
COc1cc(OCc2csc(-c3cccc(OC(C)=O)c3)n2)c2cc(-c3cn4nc(C)ccc4n3)oc2c1 [Example 221] | 8.92
